Data set [1] concerns the target T1, TYK2 (Homo sapiens, UniProt P29597).
T1 construct: purchased Carna Biosciences
The experiment in a line: JAK biochemical microfluidic assay (Caliper EZ Reader), TYK2. Particulars: 1 mM ATP; head prints (2.5 nM). The method, then: (§1) JAK activity was determined in the reaction buffer 50 mM HEPES, 0.01% Brij35, 10 mM MgCl2, 2 mM DTT by a microfluidic assay. The phosphorylation of a FAM labeled peptide substrate was monitored in the Caliper EZ Reader II (Perkin Elmer). The assay condition for each batch of enzyme (Carna Biosciences) was optimized to obtain 10% conversion rate of peptide substrate.
(§2) The test compounds were dissolved in DMSO to a stock concentration of 10 mM. Three-fold serially diluted compounds with top concentration of 5 μM were pre-incubated with JAK1, JAK2 or TYK2 for 10 min at ambient temperature. The final DMSO concentration of assay mixture was 1%. […] The reaction was stopped by adding 50 mM EDTA.
(§3) The percent inhibition was calculated by the following formula. % Inhibition=(Conversionmax−Conversionsample)/(Conversionmax−Conversionmin)*100 Conversionmax means the conversion rate in the positive well without addition of compound • […] means the conversion rate in the well without addition of enzyme • Conversionsample means the conversion rate of test compounds
(§4) The dose-response (percent inhibition) curve was plotted and IC50 values were determined by GraphPad software.

Data set [2] concerns the target T2, JAK1 (Homo sapiens, UniProt P23458).
T2 construct: purchased Carna Biosciences
The experiment in a line: JAK biochemical microfluidic assay (Caliper EZ Reader), JAK1. Particulars: 1 mM ATP; head prints (5 nM). The method, then:
as §1, §2, §3, §4

The target in data set [3] is T3, JAK2 (Homo sapiens, UniProt O60674).
T3 construct: purchased Carna Biosciences
T3 sequence (O60674 whole entry): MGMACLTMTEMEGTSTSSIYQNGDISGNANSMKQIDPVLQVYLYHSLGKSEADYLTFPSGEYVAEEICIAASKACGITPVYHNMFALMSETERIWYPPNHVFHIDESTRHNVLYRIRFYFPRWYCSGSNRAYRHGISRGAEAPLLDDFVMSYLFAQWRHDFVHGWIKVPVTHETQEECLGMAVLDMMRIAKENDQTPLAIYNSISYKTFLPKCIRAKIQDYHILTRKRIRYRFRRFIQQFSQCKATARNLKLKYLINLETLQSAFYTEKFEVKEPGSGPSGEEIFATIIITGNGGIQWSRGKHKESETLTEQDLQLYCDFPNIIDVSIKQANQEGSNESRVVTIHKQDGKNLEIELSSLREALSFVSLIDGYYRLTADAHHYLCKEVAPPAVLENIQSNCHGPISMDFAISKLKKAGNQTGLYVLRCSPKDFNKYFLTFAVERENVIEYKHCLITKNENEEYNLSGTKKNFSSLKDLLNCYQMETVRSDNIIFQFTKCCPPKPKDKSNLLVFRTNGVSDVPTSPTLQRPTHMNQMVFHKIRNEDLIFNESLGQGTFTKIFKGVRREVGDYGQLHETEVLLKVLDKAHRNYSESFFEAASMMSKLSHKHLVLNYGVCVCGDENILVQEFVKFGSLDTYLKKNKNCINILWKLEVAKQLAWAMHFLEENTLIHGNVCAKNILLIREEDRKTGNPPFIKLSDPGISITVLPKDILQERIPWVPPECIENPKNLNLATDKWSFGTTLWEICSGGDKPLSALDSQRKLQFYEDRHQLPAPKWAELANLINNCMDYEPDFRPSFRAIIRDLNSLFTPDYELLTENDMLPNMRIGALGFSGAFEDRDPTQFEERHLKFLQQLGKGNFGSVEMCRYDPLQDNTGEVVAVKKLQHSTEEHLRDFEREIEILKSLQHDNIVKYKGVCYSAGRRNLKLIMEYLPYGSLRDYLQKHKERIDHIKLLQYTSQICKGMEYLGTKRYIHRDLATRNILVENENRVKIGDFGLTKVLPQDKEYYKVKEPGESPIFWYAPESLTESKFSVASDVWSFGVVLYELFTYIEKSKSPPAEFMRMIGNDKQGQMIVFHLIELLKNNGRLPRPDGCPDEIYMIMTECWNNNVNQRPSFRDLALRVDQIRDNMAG
As to the kind of experiment: JAK biochemical microfluidic assay (Caliper EZ Reader), JAK2. Particulars: 1 mM ATP; head prints (0.25 nM). The method, then: as §1, §2, §3, §4

Data set [4] deals with BaF3-TEL-JAK2. As to the kind of experiment: Anti-proliferative assay, BaF3-TEL-JAK2 cells. The format is cell-based. The conditions noted are these: 72 h, Cell-Titer Glo. The method, then: (§5) Dimerization domain of Tel protein fused with JAK kinase domain was permanently transduced into BaF3 cells, whose proliferation is dependent on JAK activity in the absence of IL-3 induction. These engineered BaF3-Tel-JAK cells were used to monitor JAK inhibitory activities of the compounds in the cellular.
(§6) BaF3-Tel-JAK cells were cultured in RPMI-1640 (Corning) containing 10% fetal bovine serum. Cells were seeded at 2000/well of white flat bottom 96-well plates. The well containing medium only was used as background control. After 24h growth, cells were treated with compounds. The test compounds were dissolved in DMSO to a stock concentration of 10 mM. 3-fold serially diluted compounds for 9 concentrations with top concentration of 10 μM was added into the each well. The final DMSO concentration was 0.2%. The cells continued to grow at 37° C. in 5% CO2 for 72 h after compound treatment. The viability was measured by cellular ATP determination using the Cell-Titer Glo luciferase reagent (Promega). The Luminescence value was recorded by a multi-label reader Envision (PerkinElmer). Values were transformed to percent inhibition using the following formula. % Inhibition=(Readoutmax−Readoutsample)/(Readoutmax−Readoutmin)*100
(§7) The well without compound but with equivalent DMSO was defined as Readout max
(§8) The well with only medium and equivalent DMSO was defined as Readout min
(§9) The dose-response (percent inhibition) curve was plotted and GI50 values (the concentration that causes 50% growth inhibition) were determined by GraphPad software.

The test system of data set [5] is BaF3-TEL-JAK1. As to the kind of experiment: Anti-proliferative assay, BaF3-TEL-JAK1 cells. The format is cell-based. The conditions noted are these: 72 h, Cell-Titer Glo. The method, then: as §5, §6, §7, §8, §9
A short description of data set [6]: Human liver microsome stability study. The format is in vitro ADME. Particulars: liver microsomes, pH 7.4, 0.5 mg/mL microsomal protein, 1 μM test article. The method, then: Commercially available human liver microsome (vendor: Corning) were used for study the Phase I stability of test articles.
Microsomes were pre-incubated with test compound or control compounds for 10 min at 37° C. in 100 mM potassium phosphate buffer, pH 7.4, 3.3 mM MgCl2. The reaction was initiated by addition of 80 μL of the NADPH regenerating system to 320 μL of each incubation mixture per time point. The final incubation condition was composed of 0.5 mg/mL microsomal protein, 1 μM test article/positive control, 1.3 mM NADP, 3.3 mM glucose-6-phosphate, and 0.6 U/mL glucose-6-phosphate dehydrogenase. The 0-minute samples were prepared by addition of an 80 μL aliquot of each incubation mixture to 400 μL quench reagent to precipitate proteins. And then a 20 μL aliquot of the NADPH regenerating system was added. At 10, 30, and 90 minutes, the reaction will be stopped by the addition of cold acetonitrile solution containing tolbutamide and propanolol served as internal standard. The samples taken at all time points were centrifuged at 4000×g for 15 minutes. 80 μL of supernatant are taken into 96-well assay plates pre-added with 160 μL ultrapure water, and then analyzed by LC/MS/MS (Shimadzu LC30AD & API4000/API5000)).
Concentrations of test articles, control compounds in the samples were determined by using LC/MS/MS) method. Plotting of the chromatograms and peak area integrations are carried out by Analyst (AB Sciex).
In the determination of the in vitro elimination constant, ke, of the control compounds, the analyte/internal standard peak area ratios will be converted to percentage remaining (% Remaining) with the following equation:
The CLint of microsomes was calculated using the formula: CLint (mic)=0.693/T1/2/mg microsome protein per mL.
(Liver microsomes are vesicles of endoplasmic reticulum, rich in cytochrome P450 enzymes.)

SMILES strings stand for the structures.

T2 sequence (P23458 whole entry): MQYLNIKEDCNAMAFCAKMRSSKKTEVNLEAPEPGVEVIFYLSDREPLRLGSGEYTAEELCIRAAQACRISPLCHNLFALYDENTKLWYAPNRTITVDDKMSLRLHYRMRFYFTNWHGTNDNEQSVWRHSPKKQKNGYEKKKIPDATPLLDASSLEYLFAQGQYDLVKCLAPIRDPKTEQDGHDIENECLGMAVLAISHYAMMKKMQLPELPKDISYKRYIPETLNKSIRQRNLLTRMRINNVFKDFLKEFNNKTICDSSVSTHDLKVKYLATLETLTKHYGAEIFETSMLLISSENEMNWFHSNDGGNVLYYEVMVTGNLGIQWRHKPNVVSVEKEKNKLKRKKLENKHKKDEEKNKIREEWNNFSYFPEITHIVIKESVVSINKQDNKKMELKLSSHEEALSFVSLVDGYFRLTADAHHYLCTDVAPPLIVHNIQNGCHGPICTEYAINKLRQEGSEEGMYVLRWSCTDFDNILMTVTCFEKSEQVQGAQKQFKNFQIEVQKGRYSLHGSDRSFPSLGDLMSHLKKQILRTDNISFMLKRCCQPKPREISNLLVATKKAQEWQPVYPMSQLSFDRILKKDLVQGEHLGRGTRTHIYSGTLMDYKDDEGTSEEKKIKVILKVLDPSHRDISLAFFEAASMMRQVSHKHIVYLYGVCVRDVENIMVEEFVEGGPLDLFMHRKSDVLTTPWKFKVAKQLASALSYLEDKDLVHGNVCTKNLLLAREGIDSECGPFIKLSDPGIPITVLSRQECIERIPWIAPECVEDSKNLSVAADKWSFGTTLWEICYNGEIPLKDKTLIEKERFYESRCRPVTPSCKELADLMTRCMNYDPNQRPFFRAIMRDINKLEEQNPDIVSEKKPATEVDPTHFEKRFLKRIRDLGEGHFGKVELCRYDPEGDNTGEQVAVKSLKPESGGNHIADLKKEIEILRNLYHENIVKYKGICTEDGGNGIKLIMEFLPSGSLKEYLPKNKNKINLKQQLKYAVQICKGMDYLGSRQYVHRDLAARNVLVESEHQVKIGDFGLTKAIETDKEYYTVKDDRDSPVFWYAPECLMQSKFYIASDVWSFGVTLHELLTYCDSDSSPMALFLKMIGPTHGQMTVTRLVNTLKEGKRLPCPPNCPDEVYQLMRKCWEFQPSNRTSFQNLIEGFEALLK
T1 sequence (P29597 whole entry): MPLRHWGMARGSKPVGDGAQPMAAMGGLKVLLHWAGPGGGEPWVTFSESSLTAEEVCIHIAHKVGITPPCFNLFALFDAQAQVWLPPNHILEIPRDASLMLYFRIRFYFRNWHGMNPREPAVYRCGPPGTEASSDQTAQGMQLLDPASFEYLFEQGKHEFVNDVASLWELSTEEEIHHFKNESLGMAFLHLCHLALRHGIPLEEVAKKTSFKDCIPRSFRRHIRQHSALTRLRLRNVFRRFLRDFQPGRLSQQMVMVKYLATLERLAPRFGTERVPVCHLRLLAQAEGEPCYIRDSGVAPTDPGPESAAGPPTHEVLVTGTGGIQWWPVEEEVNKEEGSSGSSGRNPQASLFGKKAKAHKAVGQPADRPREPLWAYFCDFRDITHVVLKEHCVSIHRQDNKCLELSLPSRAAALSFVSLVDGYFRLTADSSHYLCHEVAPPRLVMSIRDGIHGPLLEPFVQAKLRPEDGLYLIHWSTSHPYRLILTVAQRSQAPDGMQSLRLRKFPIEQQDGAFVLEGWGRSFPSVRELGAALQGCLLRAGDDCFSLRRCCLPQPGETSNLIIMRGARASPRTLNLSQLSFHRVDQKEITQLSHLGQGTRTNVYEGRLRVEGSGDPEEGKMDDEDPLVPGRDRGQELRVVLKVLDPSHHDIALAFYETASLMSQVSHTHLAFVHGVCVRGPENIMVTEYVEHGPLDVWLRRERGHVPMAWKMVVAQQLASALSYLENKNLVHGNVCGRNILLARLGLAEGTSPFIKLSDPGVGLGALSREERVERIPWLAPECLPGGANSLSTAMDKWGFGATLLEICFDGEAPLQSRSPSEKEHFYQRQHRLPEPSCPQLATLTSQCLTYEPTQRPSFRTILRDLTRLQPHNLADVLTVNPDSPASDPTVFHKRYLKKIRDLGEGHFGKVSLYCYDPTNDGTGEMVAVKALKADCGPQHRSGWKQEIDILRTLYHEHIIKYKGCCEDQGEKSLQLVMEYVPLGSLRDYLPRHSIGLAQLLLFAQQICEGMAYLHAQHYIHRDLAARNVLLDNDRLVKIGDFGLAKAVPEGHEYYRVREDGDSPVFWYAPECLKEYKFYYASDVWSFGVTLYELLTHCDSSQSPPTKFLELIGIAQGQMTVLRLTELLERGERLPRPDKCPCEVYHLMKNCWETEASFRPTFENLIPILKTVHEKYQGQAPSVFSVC

As a reminder, the IC50 is the concentration needed to halve the response being measured. As to `CC(C)(C)OC(=O)NC12CC(n3cnc4cnc5[nH]ccc5c43)(C1)C2` [Example 1i, Tert-butyl (3-(imidazo[4,5-d]pyrrolo[2,3-b]pyridin-1(6H)-yl)bicyclo[1.1.1]pentan-1-yl)carbamate], the IC50 in data set [1] is 2880 nM; in data set [2] it was 43 nM; in data set [3], 472 nM.

A word on the GI50: it is the concentration at which growth is held to half of that of the control. High values mean lower sensitivity of the cells, low ones greater sensitivity of the cells. As for `CCCS(=O)(=O)N[C@H]1C[C@@H](n2cnc3cnc4[nH]ccc4c32)C1` [Example 2, N-(Cis-3-(imidazo[4,5-d]pyrrolo[2,3-b]pyridin-1(6H)-yl)cyclobutyl)propane-1-sulfonamide], the IC50 was found to be 2850 nM in data set [1], 69.2 nM in data set [2] and 1090 nM in data set [3]. The GI50 in data set [4] was 2300 nM; in data set [5] it was 352 nM.

Turning to `CCCS(=O)(=O)N[C@H]1C[C@H](n2cnc3cnc4[nH]ccc4c32)C1` [Example 3, N-(trans-3-(imidazo[4,5-d]pyrrolo[2,3-b]pyridin-1(6H)-yl)cyclobutyl)propane-1-sulfonamide], the IC50 in data set [1] was determined as 3660 nM; in data set [2], 190 nM; in data set [3], 1540 nM. For the same molecule, the GI50 in data set [4] was determined as 2540 nM; in data set [5] it was 1090 nM.

For the molecule `CC(C)CS(=O)(=O)NC12CC(n3cnc4cnc5[nH]ccc5c43)(C1)C2` [Example 5, N-(3-(imidazo[4,5-d]pyrrolo[2,3-b]pyridin-1(6H)-yl)bicyclo[1.1.1]pentan-1-yl)-2-methylpropane-1-sulfonamide], the IC50 in data set [1] was 111 nM; in data set [2], 5.53 nM; in data set [3], 145 nM. Also, the GI50 amounted to 380 nM in data set [4] and 10 nM in data set [5].

Regarding `COCCS(=O)(=O)NC12CC(n3cnc4cnc5[nH]ccc5c43)(C1)C2` [Example 6, N-(3-(imidazo[4,5-d]pyrrolo[2,3-b]pyridin-1(6H)-yl)bicyclo[1.1.1]pentan-1-yl)-2-methoxyethanesulfonamide], the values for the IC50 in data set [1], in data set [2] and in data set [3] were 1050 nM, 24.4 nM and 597 nM, respectively.

For the molecule `O=S(=O)(NC12CC(n3cnc4cnc5[nH]ccc5c43)(C1)C2)C1CC1` [Example 7, N-(3-(imidazo[4,5-d]pyrrolo[2,3-b]pyridin-1(6H)-yl)bicyclo[1.1.1]pentan-1-yl)cyclopropanesulfonamide], the IC50 was 574 nM in data set [1], 45.3 nM in data set [2] and 470 nM in data set [3].

As for `N#CCCC(=O)NC12CC(n3cnc4cnc5[nH]ccc5c43)(C1)C2` [Example 14, 3-Cyano-N-(3-(imidazo[4,5-d]pyrrolo[2,3-b]pyridin-1(6H)-yl)bicyclo[1.1.1]pentan-1-yl)propanamide], in data set [6] (read-out: HLM Clint), the microsomal CLint at 1 μM is 0.77 µL/min/mg. Also, in data set [6] (read-out: HLM T½), the half-life at 1 μM came out at 29.8 h. Further, the values for the IC50 in data set [2] and in data set [3] were 8.06 nM and 73.1 nM, respectively.

For the molecule `O=C(CCC(F)(F)F)NC12CC(n3cnc4cnc5[nH]ccc5c43)(C1)C2` [Example 18, 4,4,4-Trifluoro-N-(3-(imidazo[4,5-d]pyrrolo[2,3-b]pyridin-1(6H)-yl)bicyclo[1.1.1]pentan-1-yl)butanamide], the GI50 in data set [4] came to 291 nM; in data set [5] it was 120 nM. Also, the IC50 in data set [2] amounted to 18.7 nM; in data set [3] it was 167 nM.

For the molecule `N#CC1CCN(S(=O)(=O)NC23CC(n4cnc5cnc6[nH]ccc6c54)(C2)C3)C1` (stereo not drawn) [Example 20, 3-Cyano-N-(3-(imidazo[4,5-d]pyrrolo[2,3-b]pyridin-1(6H)-yl)bicyclo[1.1.1]pentan-1-yl)pyrrolidine-1-sulfonamide], the IC50 in data set [1] worked out at 200 nM; in data set [2] it was 8.3 nM; in data set [3], 334 nM.

Take `O=S(=O)(NC12CC(n3cnc4cnc5[nH]ccc5c43)(C1)C2)N1CC(F)(F)C1` [Example 23, 3,3-difluoro-N-(3-(imidazo[4,5-d]pyrrolo[2,3-b]pyridin-1(6H)-yl)bicyclo[1.1.1]pentan-1-yl)azetidine-1-sulfonamide]: the values for the IC50 in data set [1], in data set [2] and in data set [3] were 33.5 nM, 3.4 nM and 50.8 nM, respectively. Further, the GI50 in data set [4] worked out at 148 nM; in data set [5] it was 41.6 nM.

For `O=S(=O)(NC12CC(n3cnc4cnc5[nH]ccc5c43)(C1)C2)c1ccc(Cl)cc1` [Example 28, 4-Chloro-N-(3-(imidazo[4,5-d]pyrrolo[2,3-b]pyridin-1(6H)-yl)bicyclo[1.1.1]pentan-1-yl)benzenesulfonamide], the IC50 in data set [1] came out at 413 nM; in data set [2] it was 6.7 nM; in data set [3], 259 nM. Further, the GI50 in data set [4] was 286 nM; in data set [5] it was 51 nM.

Turning to `CCCCS(=O)(=O)NC12CC(n3cnc4cnc5[nH]ccc5c43)(C1)C2` [Example 31, N-(3-(imidazo[4,5-d]pyrrolo[2,3-b]pyridin-1(6H)-yl)bicyclo[1.1.1]pentan-1-yl)butane-1-sulfonamide], the IC50 came out at 170 nM in data set [1], 4.8 nM in data set [2] and 129 nM in data set [3]. The GI50 was determined as 198 nM in data set [4] and 27.8 nM in data set [5].

As to `O=C(NCC(F)(F)F)NC12CC(n3cnc4cnc5[nH]ccc5c43)(C1)C2` [Example 41, 1-(3-(Imidazo[4,5-d]pyrrolo[2,3-b]pyridin-1(6H)-yl)bicyclo[1.1.1]pentan-1-yl)-3-(2,2,2-trifluoroethyl)urea], the GI50 in data set [4] was 1000 nM; in data set [5], 99.6 nM. Also, the IC50 in data set [2] stood at 8.5 nM; in data set [3] it was 94.6 nM.

Consider `O=S(=O)(CC1CC(F)(F)C1)NC12CC(n3cnc4cnc5[nH]ccc5c43)(C1)C2` [Example 46, 1-(3,3-Difluorocyclobutyl)-N-(3-(imidazo[4,5-d]pyrrolo[2,3-b]pyridin-1(6H)-yl)bicyclo[1.1.1]pentan-1-yl)methanesulfonamide], for which the IC50 in data set [1] worked out at 108 nM; in data set [2], 2.2 nM; in data set [3], 78.3 nM. For the same molecule, the GI50 in data set [4] was 133 nM; in data set [5], 14.2 nM.

With `CCCS(=O)(=O)NC12CC(n3c(C)nc4cnc5[nH]ccc5c43)(C1)C2` [Example 48, N-(3-(2-methylimidazo[4,5-d]pyrrolo[2,3-b]pyridin-1(6H)-yl)bicyclo[1.1.1]pentan-1-yl)propane-1-sulfonamide], the values for the IC50 in data set [2] and in data set [3] were 13 nM and 244 nM, respectively.

In the case of `CCCS(=O)(=O)NC12CC(N(C)c3ncnc4[nH]ccc34)(C1)C2` [Example 49, N-(3-(Methyl(7H-pyrrolo[2,3-d]pyrimidin-4-yl)amino)bicyclo[1.1.1]pentan-1-yl)propane-1-sulfonamide], the IC50 in data set [2] and in data set [3] was more than 5000 nM in each case.

Values taken from patent US11851431B2, “Tricyclic Janus kinase 1 inhibitors, and compositions and methods thereof” (LYNK PHARMACEUTICALS CO. LTD., priority 2018, dated 2023).
